Experimental findings from patent US12629374B2, “Antimalarial agents” (Merck Sharp & Dohme LLC, priority 2020, dated 2026) are described below.

Molecules are shown by their SMILES. pEC50: −log10 of the molar value.

The first test has as its system ring stage parasites. Nature of the test: Parasite growth potency assay, 72 hours, LDH readout. The test is classed as cell-based. The conditions noted are these: 72 h, parasite growth measured by LDH assay after 72 hours at 37° C.; 0.7% rings, 2% haematocrit; read-out: EC50. The method, boiled down: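 Parasite growth was quantified by LDH assay after a −80 °C freeze-thaw. Before that, compound was incubated for 72 h at 37 °C under humidified gas with ring-stage cultures adjusted to 0.7% parasitemia and 2% haematocrit in serum- and albumax-supplemented RPMI-Hepes.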
For `CC[C@H](c1cccc(C(=O)N[C@@H]2c3ccccc3OC(C)(C)[C@H]2O)c1)N1C(=N)NC(CC)(CC)CC1=O` [Example 207A, [4,4-diethyl-1-[1-[3-[[(3S,4R)-3-hydroxy-2,2-dimethyl-chroman-4-yl]carbamoyl]phenyl]propyl]-6-oxo-hexahydropyrimidin-2-ylidene]ammonium; 2,2,2-trifluoroacetate], the pEC50 was 9.52.

For `CCC1(CC)CC(=O)N([C@H](CCOC)c2cccc(C(=O)N[C@H]3C[C@H](C(F)(F)F)Oc4ccccc43)c2)C(=N)N1` [Example 132B, [4,4-diethyl-1-[3-methoxy-1-[3-[[(2R,4S)-2-(trifluoromethyl)chroman-4-yl]carbamoyl]phenyl]propyl]-6-oxo-hexahydropyrimidin-2-ylidene]ammonium; 2,2,2-trifluoroacetate], the pEC50 is 9.05.

On to `CCC1(CC)CC(=O)N(Cc2cc(C#N)cc(C(=O)N[C@H]3CC(C)(C)Oc4ccccc43)c2)C(=N)N1` (stereo in doubt) [Example 89B, [1-[[3-cyano-5-[(2,2-dimethylchroman-4-yl)carbamoyl]phenyl]methyl]-4,4-diethyl-6-oxo-hexahydropyrimidin-2-ylidene]ammonium; 2,2,2-trifluoroacetate], for which the pEC50 was 8.80.

Turning to `CCC[C@H](c1cccc(C(=O)N[C@@H]2c3ccccc3OC[C@@]2(C)O)c1)N1C(=N)NC(CC)(CC)CC1=O` [Example 163A, 3-[(1R)-1-(4,4-diethyl-2-imino-6-oxo-hexahydropyrimidin-1-yl)butyl]-N-[(3S,4R)-3-hydroxy-3-methyl-chroman-4-yl]benzamide], the negative logarithm of the EC50 (pEC50) was 9.52.

Take `CCC1(COC)CC(=O)N(Cc2cccc(C(=O)N[C@@H]3c4ccccc4C[C@H]3O)c2)C(=N)N1` (stereo partly drawn) [Example 95, [4-ethyl-1-[[3-[[(1R,2R)-2-hydroxyindan-1-yl]carbamoyl]phenyl]methyl]-4-(methoxymethyl)-6-oxo-hexahydropyrimidin-2-ylidene]ammonium; 2,2,2-trifluoroacetate]: the pEC50 is 7.36.

For `CCC1(CC)CC(=O)N([C@H](c2cccc(C(=O)N[C@@H]3c4ccccc4C[C@H]3O)c2)c2cccc(S(C)(=O)=O)c2)C(=N)N1` [Example 124B, [4,4-diethyl-1-[[3-[[(1R,2R)-2-hydroxyindan-1-yl]carbamoyl]phenyl]-(3-methylsulfonylphenyl)methyl]-6-oxo-hexahydropyrimidin-2-ylidene]ammonium; 2,2,2-trifluoroacetate], the negative logarithm of the EC50 (pEC50) is 7.28.

Consider `CCC1(CC)CC(=O)N([C@H](CCOCCOCCOCCN=[N+]=[N-])c2cccc(C(=O)N[C@H]3CC(C)(C)Oc4ccccc43)c2)C(=N)N1` [Example 201, [1-[(1R)-3-[2-[2-(2-azidoethoxy)ethoxy]ethoxy]-1-[3-[[(4S)-2,2-dimethylchroman-4-yl]carbamoyl]phenyl]propyl]-4,4-diethyl-6-oxo-hexahydropyrimidin-2-ylidene]ammonium; 2,2,2-trifluoroacetate], for which the pEC50 is 8.92.

On to `CCC12CCCCCCCC3CC(NC(=O)c4cccc(c4)CN(C(=N)N1)C(=O)C2)c1ccccc1O3` (stereo not drawn) [Example 118, (26-ethyl-8,29-dioxo-17-oxa-1,9,27-triazapentacyclo[24.2.2.13,7.110,18. 011,16]dotriaconta-3,5,7(32),11(16),12,14-hexaen-28-ylidene)ammonium; 2,2,2-trifluoroacetate], for which the pEC50 is 7.25.

`CCC[C@H](c1cccc(C(=O)N[C@H]2CCOc3ccccc32)c1)N1C(=N)N[C@](CC2CC2)(c2ccccc2)CC1=O` [Example 68, [(4S)-1-[(1R)-1-[3-[[(4S)-chroman-4-yl]carbamoyl]phenyl]butyl]-4-(cyclopropylmethyl)-6-oxo-4-phenyl-hexahydropyrimidin-2-ylidene]ammonium; 2,2,2-trifluoroacetate]: the negative logarithm of the EC50 (pEC50) is 7.14.

On to `CCC1(CC)CC(=O)N([C@H](CCOC)c2cccc(C(=O)N[C@@H]3c4ccccc4OC3(C)C)c2)C(=N)N1` [Example 181A, [1-[(1R)-1-[3-[(2,2-dimethyl-3H-benzofuran-3-yl)carbamoyl]phenyl]-3-methoxy-propyl]-4,4-diethyl-6-oxo-hexahydropyrimidin-2-ylidene]ammonium; 2,2,2-trifluoroacetate], for which the negative logarithm of the EC50 (pEC50) is 8.52.

In the case of `CCC1(CC)CC(=O)N([C@H](CCOC)c2cccc(C(=O)NC3c4ccccc4CCC3O)c2)C(=N)N1` (stereo partly drawn) [Example 226, 3-[(1R)-1-(4,4-diethyl-2-imino-6-oxo-hexahydropyrimidin-1-yl)-3-methoxy-propyl]-N-(2-hydroxytetralin-1-yl)benzamide], the negative-log EC50 (pEC50) is 8.66.

As for `CCC1(CC)CC(=O)N([C@H](CCOC)c2cccc(C(=O)N[C@@H]3c4cc(F)ccc4OC(C)(C)[C@H]3O)c2)C(=N)N1` [Example 165B, [4,4-diethyl-1-[(1R)-1-[3-[[(3S,4R)-6-fluoro-3-hydroxy-2,2-dimethyl-chroman-4-yl]carbamoyl]phenyl]-3-methoxy-propyl]-6-oxo-hexahydropyrimidin-2-ylidene]ammonium; 2,2,2-trifluoroacetate], the pEC50 is 9.40.

On to `CCC1(CC)CC(=O)N(Cc2cccc(C(=O)N[C@@H]3c4cc(F)ccc4OC(C)(C)[C@H]3O)c2)C(=N)N1` (stereo in doubt) [Example 147, [4,4-diethyl-1-[[3-[(6-fluoro-3-hydroxy-2,2-dimethyl-chroman-4-yl)carbamoyl]phenyl]methyl]-6-oxo-hexahydropyrimidin-2-ylidene]ammonium; 2,2,2-trifluoroacetate], for which the negative logarithm of the EC50 (pEC50) is 9.00.

For `CCC1(CC)CC(=O)N([C@H](CC(C)(C)O)c2cccc(C(=O)N[C@H]3CC(C)(C)Oc4ccccc43)c2)C(=N)N1` [Example 145, 3-[1-(4,4-diethyl-2-imino-6-oxo-hexahydropyrimidin-1-yl)-3-hydroxy-3-methyl-butyl]-N-[(4S)-2,2-dimethylchroman-4-yl]benzamide], the pEC50 is 9.15.

For `CCC1(CC)CC(=O)N([C@H](CCS(C)(=O)=O)c2cccc(C(=O)N[C@@H]3c4ccccc4C[C@@]3(C)O)c2)C(=N)N1` [Example 154A, 3-[1-(4,4-diethyl-2-imino-6-oxo-hexahydropyrimidin-1-yl)-3-methylsulfonyl-propyl]-N-[(1R,2R)-2-hydroxy-2-methyl-indan-1-yl]benzamide], the negative-log EC50 (pEC50) was 7.27.

Consider `CCC1(CC)CC(=O)N(Cc2cccc(C(=O)N[C@@H]3c4ccccc4OCC3F)c2)C(=N)N1` (stereo in doubt) [Example 87, [4,4-diethyl-1-[[3-[(3-fluorochroman-4-yl)carbamoyl]phenyl]methyl]-6-oxo-hexahydropyrimidin-2-ylidene]ammonium; 2,2,2-trifluoroacetate], for which the pEC50 was 8.14.

As for `CCC1(CC)CC(=O)N(Cc2cccc(C(=O)N[C@@H]3c4ccccc4OC(C)(C)[C@H]3O)c2)C(=N)N1` [Example 1, 3-((4,4-diethyl-2-imino-6-oxotetrahydropyrimidin-1(2H)-yl)methyl)-N-((3S,4R)-3-hydroxy-2,2-dimethylchroman-4-yl)benzamide], the pEC50 is 9.10.

Staying with this test, now noted: parasite growth measured by LDH assay after 72 hours at 37° C.; 0.7% rings, 2% haematocrit; read-out: EC50.
Regarding `CCC1(CC)CC(=O)N([C@H](CCOC)c2cc(F)cc(C(=O)N[C@H]3c4ccccc4CC3(C)O)c2)C(=N)N1` (single isomer, unassigned) [Example 144C, 3-[1-(4,4-diethyl-2-imino-6-oxo-hexahydropyrimidin-1-yl)-3-methoxy-propyl]-5-fluoro-N-(2-hydroxy-2-methyl-indan-1-yl)benzamide], the negative logarithm of the EC50 (pEC50) is 7.00.

The term pEC50 denotes the negative decadic logarithm of the EC50, by convention in mol/L.
